Drawing on ChEMBL document CHEMBL6109050, “Synthesis of novel pyrrolobenzodiazepine (PBD) C1-substituted monomers and dimers with DNA-binding activity and cytotoxicity” (Bioorg Med Chem Lett, 2025), this text covers IC50 for two molecules.

The test system of the assay is MDA-MB-231. Kind of assay: Cytotoxicity against human MDA-MB-231 cells incubated for 72 hrs by MTT assay. The format is functional, cell-based. The settings on record: MDA-MB-231, 72 h. In general terms: Tetrazolium assays rely on reduction of a dye to a coloured formazan, in cell work by metabolically active cells.

In general, IC50 refers to the concentration that inhibits the measured activity by half. Read a low IC50 as greater potency. Turning to `COc1cc2c(cc1OC)C(=O)N1CC[C@H](OCCCO[C@H]3CCN4C(=O)c5cc(OC)c(OC)cc5N=C[C@H]34)[C@H]1C=N2`, the half-inhibitory concentration (IC50) worked out at 236 nM.
Molecule `COC(=O)c1cc(-c2ccc(NC(=O)c3nc(NC(=O)CO[C@H]4CCN5C(=O)c6cc(OC)c(OC)cc6N=C[C@H]45)cn3C)cc2)cn1C` gave a 50% inhibitory concentration (IC50) of 36 nM.
